Among the data in patent publication US5536847A, “4-desoxy-4-epipodophyllotoxin derivative or pharmaceutically acceptable salt thereof” (Taiho Pharmaceutical Co. Ltd., priority 1991, dated 1996) are IC50, Life-prolonging effect and serious adverse reactions values, retold here.

Like-named read-outs stand apart in the source and are kept apart here.

Data set [1] deals with P388 mouse leukemia cell line. The experiment in a line: Cytocidal effect on P388 mouse leukemia cells (crystal violet cytometry). The data set is classed as cell-based. The note with it: read-out: ED50 (concentration causing a 50% decrease in cell count as compared with the control). As for the experimental part:
A 96-well plate was inoculated with 1×10^3 cells/well of P388 mouse leukemia cell line and incubated for 24 hours. The test compound was dissolved in dimethylformamide and the solution was diluted with medium to various concentrations and added to respective wells. The plate was further incubated for 3 days, after which it was fixed with glutaraldehyde and stained with crystal violet for cytometry. The cytocidal effect of each compound was expressed as the concentration causing a 50% decrease in cell count (ED50) as compared with the control.

Data set [2] relates to L1210 mouse leukemia cell line. Nature of the data set: Life-prolonging effect in CDF1 mice intraperitoneally transplanted with L1210 leukemia. In kind it is in vivo. The note with it: 5 days, L1210, male CDF1 mice, vs vehicle group. The method, then:
L1210 mouse leukemia cell line, 1×10^5 cells/mouse, was intraperitoneally transplanted into 7-weeks-old male CDF1 mice (6 per group). The test compound, in the varying amounts shown below in Table 4, was dissolved in physiological saline containing 3.5% of dimethyl sulfoxide and 6.5% of Tween 80 and the solution was intraperitoneally administered for 5 days following the transplantation of cells for a total of 5 times. The percent life-prolonging effect of the compound was determined by comparison with a group given physiological saline containing 3.5% of dimethyl sulfoxide and 6.5% of Tween 80 only.

For data set [3] the following is noted: background art statement; cited from earlier work.
Setting [4] is: 72 h, P388 mouse leukemia cells, 1×10^3 cells/well, 3 days incubation with compound.

With `COc1cc(C2c3cc4c(cc3C(CC=O)C3COC(=O)C23)OCO4)cc(OC)c1OC(=O)OCc1ccccc1` (stereo not drawn) [Compound 3, 4-desoxy-4'-demethyl-4'-O-benzyloxycarbonyl-4-formylmethyl-4-epipodophyllotoxin], in data set [1] (Mus musculus, P388, 72 h), the IC50 amounted to 0.45 µM.
Still for that read-out and setting: the value for `COc1cc(C2c3cc4c(cc3C(CC=O)C3COC(=O)C23)OCO4)cc(OC)c1O` (stereo not drawn) [Compound 5, 4-desoxy-4'-demethyl-4-formylmethyl-4-epipodophyllotoxin] was 0.12 µM; that for `COc1cc(C2c3cc4c(cc3C(CCCN(C)C)C3COC(=O)C23)OCO4)cc(OC)c1O` (stereo not drawn) [Compound 28, 4-desoxy-4'-demethyl-4-(3-N,N-dimethylamino-1-propyl)-4-epipodophyllotoxin] was 0.012 µM.
Turning to `COc1cc(C2c3cc4c(cc3C(CCN(C)N(C)C)C3COC(=O)C23)OCO4)cc(OC)c1O` (stereo not drawn) [Compound 33], the IC50 in data set [1] (Mus musculus, P388, 72 h) was determined as 0.02 µM.
Same read-out and setting: next, `COc1cc(C2c3cc4c(cc3C(CCN3CCN(C)CC3)C3COC(=O)C23)OCO4)cc(OC)c1O` (stereo not drawn) [Compound 34]: 0.003 µM.
As to `COc1cc(C2c3cc4c(cc3C(CCN(C)CCN(C)C)C3COC(=O)C23)OCO4)cc(OC)c1O` (stereo not drawn) [Compound 35], in data set [1] (setting [4]), the IC50 came out at 0.001 µM.
In the case of `COc1cc(C2c3cc4c(cc3C(CCN3CCOCC3)C3COC(=O)C23)OCO4)cc(OC)c1O` (stereo not drawn) [Compound 36], in data set [2] (10 mg/kg/day i.p.), the Life-prolonging effect is reported as 81%.
As for `CCCCCCN(C)CCC1c2cc3c(cc2C(c2cc(OC)c(O)c(OC)c2)C2C(=O)OCC12)OCO3` (stereo not drawn) [Compound 38], the IC50 in data set [1] (Mus musculus, P388, 72 h) was 0.019 µM.
On to `COc1cc(C2c3cc4c(cc3C(CCN(C)CCN3CCCCC3)C3COC(=O)C23)OCO4)cc(OC)c1O` (stereo not drawn) [Compound 43], for which, in data set [1] (Mus musculus, P388, 72 h), the IC50 came out at 0.0041 µM. The same compound showed a Life-prolonging effect in data set [2] (5 mg/kg/day i.p.) of 257%.
As for `COc1cc(C2c3cc4c(cc3C(CCN3CCCCC3)C3COC(=O)C23)OCO4)cc(OC)c1O` (stereo not drawn) [Compound 44], the IC50 in data set [1] (Mus musculus, P388, 72 h) came to 0.012 µM.
Consider `COc1cc(C2c3cc4c(cc3C(CCN3CCC(N5CCCCC5)CC3)C3COC(=O)C23)OCO4)cc(OC)c1O` (stereo not drawn) [Compound 45], for which the IC50 in data set [1] (Mus musculus, P388, 72 h) stood at 0.0033 µM. Also, the Life-prolonging effect in data set [2] (2.5 mg/kg/day i.p.) was 231%.
With `CCN(CC)CCN(C)CCC1c2cc3c(cc2C(c2cc(OC)c(O)c(OC)c2)C2C(=O)OCC12)OCO3` (stereo not drawn) [Compound 47], the IC50 in data set [1] (setting [4]) was 0.0063 µM.
In the case of `COc1cc(C2c3cc4c(cc3C(CCNCCN(C)C)C3COC(=O)C23)OCO4)cc(OC)c1O` (stereo not drawn) [Compound 52], in data set [1] (Mus musculus, P388, 72 h), the IC50 turned out to be 0.04 µM.
For the compound `COc1cc(C2c3cc4c(cc3C(CCN(C)N3CCN(C)CC3)C3COC(=O)C23)OCO4)cc(OC)c1O` (stereo not drawn) [Compound 53], the IC50 in data set [1] (Mus musculus, P388, 72 h) was found to be 0.0043 µM.
On to `COc1cc([C@@H]2c3cc4c(cc3[C@@H](O[C@@H]3O[C@@H]5CO[C@@H](C)O[C@H]5[C@H](O)[C@H]3O)[C@H]3COC(=O)[C@H]23)OCO4)cc(OC)c1O` [etoposide], for which the serious adverse reactions entry in data set [3] is “may cause serious adverse reactions including leukopenia, thrombopenia, alopecia, nausea and vomiting”.
On to `COc1cc([C@@H]2c3cc4c(cc3[C@@H](O[C@@H]3O[C@@H]5CO[C@@H](c6cccs6)O[C@H]5[C@H](O)[C@H]3O)[C@H]3COC(=O)[C@H]23)OCO4)cc(OC)c1O` [teniposide], for which the serious adverse reactions entry in data set [3] is “may cause serious adverse reactions including leukopenia, thrombopenia, alopecia, nausea and vomiting”.
